This is an account of results in patent publication US20140079632A1, “ACTIVITY-BASED PROBES FOR THE UROKINASE P[…]” (UNIVERSITEIT ANTWERPEN, priority 2011, published 2014).

Format in all cases: biochemical
One test has as its target FXa (Homo sapiens, UniProt P00742). The experiment in a line: Selectivity: FXa inhibition, substrate Biophen CS-11(32). As to conditions: for FXa % (I) @ 250: at 250 (μM).
Test [1] deals with T1, uPA (Homo sapiens, UniProt P00749).
T1 construct: purchased Nodia
The experiment in a line: uPA inhibition: in vitro evaluation, IC50 with chromogenic substrate Biophen CS-61(44). As to conditions: 15 min preincubation at 37° C.; Tris buffer pH 8.8; 250 μM substrate. How it is done:
Enzymatic activity was measured at 37° C. in a Spectramax 340 (Molecular Devices) microtiter plate reader using the chromogenic substrate Biophen CS-61(44) (LpyroGlu-Gly L-Arg-p-NA.HCl), with a Km of 80 μM.
The substrate and human enzyme were obtained from Nodia. The reaction was monitored at 405 nm, and the initial rate was determined between 0 and 0.25 absorbance units in 20 min. The reaction mixture contained 250 μM substrate and approximately 1 mU of enzyme in 145 μL of buffer in a final volume of 200 μL. A 50 mM Tris buffer, pH 8.8, was used. From each inhibitor concentration, 5 μL was added, obtaining a final concentration from 0 to 250 μM in a total volume of 0.2 mL. Activity measurements were routinely performed in duplicate. […] IC50 values were obtained by fitting the data with the four-parameter logistics equation using Grafit 5.
where s=slope factor, v=rate, I0=inhibitor concentration, and range=the fitted uninhibited value minus the background. The equation assumes the y falls with increasing x.
(§1) Inhibitor stock solutions were prepared in DMSO and stored at −20° C. Because the compounds described in this paper completely inactivate uPA following pseudofirst-order kinetics, the IC50 value is inversely correlated with the second-order rate constant of inactivation. For a simple pseudofirst-order inactivation process, the activity after incubation with inhibitor (vi) varies with the inhibitor concentration (i), as described in the following equation: […]

A further test addresses T2, tPA (recombinant) (Homo sapiens, UniProt P00750).
T2 construct: purchased Nodia
The experiment in a line: Selectivity: tPA inhibition, substrate Biophen CS-05(88). The following applies: 15 min preincubation; Tris buffer pH 8.3; 1.25 mM substrate. How it is done: (§2) The substrate and human enzyme were obtained from Nodia. The reaction was monitored at 405 nm, and the initial rate was determined between 0 and 0.25 absorbance units in 20 min. […] A 50 mM Tris buffer, pH 8.8, was used. From each inhibitor concentration, 5 μL was added, obtaining a final concentration from 0 to 250 μM in a total volume of 0.2 mL. Activity measurements were routinely performed in duplicate. […] IC50 values were obtained by fitting the data with the four-parameter logistics equation using Grafit 5.
(§3) The IC50 values for plasmin (from human plasma, Sigma), tPA (recombinant, Nodia), thrombin (from human plasma, Sigma), and FXa were determined in the same way as for uPA.
(§4) For tPA and thrombin, Tris buffer, pH 8.3, was used, for FXa, Tris buffer, pH 8.3, for plasmin, Tris buffer, pH 7.4, was used.

Test [2] has as its target T1, uPA. The experiment in a line: uPA inactivation kinetics from progress curves (kobs versus inhibitor concentration, kapp). As to conditions: asterisked: compound showed a two-step mechanism, kapp calculated as k2/K1; 250 μM substrate; 37° C. As for the experimental part:
as §1
where vo is the activity in absence of inhibitor, k is the second-order rate constant of inactivation, and t is the time. The inactivation rate constant was determined from the time course of inhibition.
The inhibitor was mixed with the substrate (250 μM final concentration), and the buffer solution with the enzyme was added at the time zero. The inhibitor concentrations were chosen to obtain total inhibition of the enzyme within 20 min. The progress curves show the absorbance of p-nitroanilide produced as a function of time. Initially, no inhibitor is bound to the enzyme, and the tangent to the progress curve (dA/dt) is proportional to the concentration of the free enzyme. The concentration of free enzyme decreases over time due to the kinetics of inhibitor binding, as described above. Progress curves were recorded in pseudofirst-order conditions ([I]0>>[E]0) and with less than 10% conversion of the substrate during the entire time course. In these conditions, dA/dt decreases exponentially with time. The progress curves were fitted with the integrated rate equation to yield a value for kobs, a pseudofirst-order rate constant
At=v0[1−e^−k^obs^t]/kobs+A0
where At=absorbance at time t, A0=absorbance at time zero, and v0=uninhibited initial rate.
The apparent second-order rate constant (kapp) was calculated from the slope of the linear part of the plot of kobs versus the inhibitor concentration ([I]0). In case of competition between the inhibitor and the substrate, kapp is smaller than the “real” second order rate constant k discussed above because a certain fraction of the enzyme is present as an enzyme-substrate complex. kapp depends on the substrate concentration used in the experiment, as described by Lambeir et al.^40 For most final compounds, the kobs versus [I]0 plot was not linear, but could be fitted with a hyperbolic function: kobs=k2[I]0/(K1+[I]0) (two step mechanism). Where K1 is the dissociation constant of the reversible enzyme-inhibitor complex and k2 is the first-order rate constant associated with irreversible modification of the enzyme. A kapp could be calculated as k2/K1.

Test [3] addresses T3, plasmin (from human plasma) (Homo sapiens, UniProt P00747).
T3 construct: purchased Sigma; host or cells: human plasma
Nature of the test: Selectivity: plasmin inhibition, substrate Biophen CS-21(66). The following applies: 15 min preincubation; Tris buffer pH 7.4; 580 μM substrate. As for the experimental part:
as §2, §3, §4

In test [4] the target is T4, thrombin (from human plasma) (Homo sapiens, UniProt P00734).
T4 construct: thrombin (from human plasma, Sigma); purchased Sigma; host or cells: human plasma
The experiment in a line: Selectivity: thrombin inhibition, substrate Biophen CS-21(66). The following applies: 15 min preincubation; Tris buffer pH 8.3; 580 μM substrate. How it is done: as §2, §3, §4

Each structure is given as a SMILES string.

Sequence of FXa (P00742 235-488 limits assumed): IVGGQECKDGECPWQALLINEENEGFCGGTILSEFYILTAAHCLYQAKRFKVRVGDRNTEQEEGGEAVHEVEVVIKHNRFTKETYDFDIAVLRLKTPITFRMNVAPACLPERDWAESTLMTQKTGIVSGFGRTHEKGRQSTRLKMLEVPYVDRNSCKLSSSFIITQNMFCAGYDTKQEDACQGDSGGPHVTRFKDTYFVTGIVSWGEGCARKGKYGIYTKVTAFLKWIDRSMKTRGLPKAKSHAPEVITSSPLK
Sequence of FXa (P00742 41-179 partner limits assumed): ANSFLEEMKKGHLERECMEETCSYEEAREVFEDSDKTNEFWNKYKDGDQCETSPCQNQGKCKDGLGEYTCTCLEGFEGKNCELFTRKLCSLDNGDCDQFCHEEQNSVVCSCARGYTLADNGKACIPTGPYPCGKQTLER
T3 sequence (P00747 581-810 limits assumed): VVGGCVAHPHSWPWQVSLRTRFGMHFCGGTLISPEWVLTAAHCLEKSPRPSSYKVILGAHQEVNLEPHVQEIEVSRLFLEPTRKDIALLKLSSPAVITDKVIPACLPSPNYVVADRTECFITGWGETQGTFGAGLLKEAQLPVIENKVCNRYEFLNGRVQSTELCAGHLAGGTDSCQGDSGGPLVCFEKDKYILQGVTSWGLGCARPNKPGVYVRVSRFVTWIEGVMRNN
T3 sequence (P00747 97-580 partner limits assumed): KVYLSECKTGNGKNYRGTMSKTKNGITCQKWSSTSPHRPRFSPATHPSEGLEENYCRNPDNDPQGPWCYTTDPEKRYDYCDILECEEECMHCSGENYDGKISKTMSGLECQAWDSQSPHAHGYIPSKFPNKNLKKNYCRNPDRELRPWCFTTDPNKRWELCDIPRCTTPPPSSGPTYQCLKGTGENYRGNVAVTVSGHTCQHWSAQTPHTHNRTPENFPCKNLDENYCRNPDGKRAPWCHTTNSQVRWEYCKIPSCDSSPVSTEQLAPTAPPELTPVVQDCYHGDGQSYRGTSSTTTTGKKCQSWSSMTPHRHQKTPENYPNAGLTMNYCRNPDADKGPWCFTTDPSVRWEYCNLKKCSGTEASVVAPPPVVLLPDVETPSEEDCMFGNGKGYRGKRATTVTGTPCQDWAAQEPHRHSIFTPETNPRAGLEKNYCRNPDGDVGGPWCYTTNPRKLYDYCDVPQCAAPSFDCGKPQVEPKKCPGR
T2 sequence (P00750 36-562, species assumed): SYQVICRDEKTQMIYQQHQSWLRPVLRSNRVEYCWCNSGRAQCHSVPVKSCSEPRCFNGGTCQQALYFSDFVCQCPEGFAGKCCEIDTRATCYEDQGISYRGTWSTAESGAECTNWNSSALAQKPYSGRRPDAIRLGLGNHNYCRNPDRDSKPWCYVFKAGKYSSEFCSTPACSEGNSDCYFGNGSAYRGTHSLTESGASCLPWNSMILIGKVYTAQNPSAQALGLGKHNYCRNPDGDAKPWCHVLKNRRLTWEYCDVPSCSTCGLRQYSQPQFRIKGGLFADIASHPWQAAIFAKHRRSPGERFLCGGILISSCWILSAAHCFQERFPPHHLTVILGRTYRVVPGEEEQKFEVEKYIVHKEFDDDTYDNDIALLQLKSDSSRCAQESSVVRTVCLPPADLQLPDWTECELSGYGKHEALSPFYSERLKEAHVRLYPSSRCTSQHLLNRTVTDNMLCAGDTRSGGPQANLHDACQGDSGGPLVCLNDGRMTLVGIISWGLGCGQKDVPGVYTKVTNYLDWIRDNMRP

With `N=C(N)Nc1ccc(CC(NC(=O)OCCCc2cn(CCOCCOCCOCCNC(=O)CCCC[C@@H]3SC[C@@H]4NC(=O)N[C@@H]43)nn2)P(=O)(Oc2ccccc2)Oc2ccccc2)cc1.O=C(O)C(F)(F)F` (stereo partly drawn) [Final compound 7, 3-(1-(13-oxo-17-((3aS,4S,6aR)-2-oxohexahydro-1H-thieno[3,4-d]imidazol-4-yl)-3,6,9-trioxa-12-azaheptadecyl)-1H-1,2,3-triazol-4-yl)propyl (1-(diphenoxyphosphoryl)-2-(4-guanidinophenyl)ethyl)carbamate 2,2,2-trifluoroacetate], the “FXa % (I) @ 250” value at FXa was 73% I @ 250 ^. The IC50 was found to be 0.0156 ± 0.001 µM at uPA [1], 58 ± 6 µM on tPA (recombinant), 4.7 ± 0.1 µM in test [3] and 14.1 ± 0.3 µM in test [4]. The “uPA: kapp” value at uPA [2] is recorded as 86 × 10^2 ± 10 × 10^2 * M^−1 s^−1.
For `Cl.N=C(N)Nc1ccc(CC(NC(=O)OCCCc2cn(CCOCCOCCOCCNC(=O)c3ccc(F)cc3)nn2)P(=O)(Oc2ccccc2)Oc2ccccc2)cc1` (stereo not drawn) [Final compound 8, 3-(1-(1-(4-fluorophenyl)-1-oxo-5,8,11-trioxa-2-azamidecan-13-yl)-1H-1,2,3-triazol-4-yl)propyl (1-(diphenoxyphosphoryl)-2-(4-guanidinophenyl)ethyl)carbamate hydrochloride], the IC50 on FXa (15 min preincubation, Tris buffer pH 8.3, 522 μM substrate) is approximately 62 µM; at uPA [1], 0.019 ± 0.002 µM; at tPA (recombinant), 46 ± 5 µM; in test [3] it was 5.9 ± 0.8 µM; in test [4], 13.2 ± 0.6 µM. On uPA [2], the “uPA: kapp” value is recorded as 68 × 10^2 ± 25 × 10^2 * M^−1 s^−1.
For `C#CCOCCOC(=O)NC(Cc1ccc(NC(=N)N)cc1)P(=O)(Oc1ccccc1)Oc1ccccc1.O=C(O)C(F)(F)F` (stereo not drawn) [Intermediate 55, 2-(prop-2-ynyloxy)ethyl 1-(diphenoxyphosphoryl)-2-(4-guanidinophenyl)ethyl carbamate 2,2,2-trifluoroacetate], the “FXa % (I) @ 250” value at FXa is on record as 50% @ 250. Moreover, the IC50 on uPA [1] amounted to 0.0088 ± 0.0008 µM; on tPA (recombinant), 66 ± 13 µM; in test [3], 11 ± 1 µM; in test [4], 33 ± 4 µM. Moreover, the “uPA: kapp” value on uPA [2] is given as 19 × 10^3 ± 4 × 10^3 * M^−1 s^−1.
In the case of `C#CCOCCOCCOC(=O)NC(Cc1ccc(NC(=N)N)cc1)P(=O)(Oc1ccccc1)Oc1ccccc1.O=C(O)C(F)(F)F` (stereo not drawn) [Intermediate 56, 2-(2-(prop-2-ynyloxy)ethoxy)ethyl 1-(diphenoxyphosphoryl)-2-(4-guanidinophenyl)ethylcarbamate 2,2,2-trifluoroacetate], at FXa, the “FXa % (I) @ 250” value came out at 58% @ 250. Further, the 50% inhibitory concentration (IC50) was 0.0085 ± 0.0012 µM against uPA [1], 65 ± 9 µM on tPA (recombinant), 7.8 ± 0.6 µM in test [3] and 20 ± 3 µM in test [4]. For the same molecule, the “uPA: kapp” value on uPA [2] is given as 12 × 10^3 ± 5 × 10^3 * M^−1 s^−1.
On to `C#CCOCCOCCOCCOC(=O)NC(Cc1ccc(NC(=N)N)cc1)P(=O)(Oc1ccccc1)Oc1ccccc1.O=C(O)C(F)(F)F` (stereo not drawn) [Intermediate 57, 2-(2-(2-(prop-2-ynyloxy)ethoxy)ethoxy)ethyl 1-(diphenoxyphosphoryl)-2-(4-guanidinophenyl)ethylcarbamate 2,2,2-trifluoroacetate], for which the “FXa % (I) @ 250” value at FXa worked out at 54% @ 250. Besides, the IC50 at uPA [1] worked out at 0.011 ± 0.001 µM; at tPA (recombinant) it was 67 ± 7 µM; in test [3], 9 ± 2 µM; in test [4], 21 ± 5 µM. Also, the “uPA: kapp” value on uPA [2] was 11 × 10^3 ± 4 × 10^3 * M^−1 s^−1.
Consider `C#CCCCOC(=O)NC(Cc1ccc(NC(=N)N)cc1)P(=O)(Oc1ccccc1)Oc1ccccc1.O=C(O)C(F)(F)F` (stereo not drawn) [Intermediate 58, pent-4-ynyl 1-(diphenoxyphosphoryl)-2-(4-guanidinophenyl)ethylcarbamate 2,2,2-trifluoroacetate], for which the “FXa % (I) @ 250” value on FXa is recorded as 50% @ 250. Also, the IC50 against uPA [1] was 0.008 ± 0.0005 µM; on tPA (recombinant) it was 29 ± 2 µM; in test [3] it was 3.4 ± 0.4 µM; in test [4] it was 12.2 ± 0.3 µM. The “uPA: kapp” value on uPA [2] is listed as 30 × 10^3 ± 9 × 10^3 * M^−1 s^−1.
